Assay results from US9738634B2, “Heterocyclic amide compound and herbicide” (SYNGENTA PARTICIPATIONS AG, priority 2013, dated 2017).

How the values were obtained:
Format in all cases: in vivo
barnyard grass [1] = assay: Test Example 1: weedkilling efficacy, preemergent weed treatment in the submerged state; A: barnyard grass; conditions: treatment dosage 252 g/ha
Summary of the method: (§1)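 Pre-emergence application onto floodwater (4 cm, alluvial soil) on the day of sowing, dose expressed as g/ha from diluted emulsion formulation. Weeds sown with 2.5-leaf transplanted rice as crop; plants held at 25–30 °C in greenhouse and scored against assessment criteria after 3 weeks.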

bulrush [2] = assay: Test Example 1: weedkilling efficacy, preemergent weed treatment in the submerged state; B: bulrush; conditions: treatment dosage 252 g/ha
Summary of the method: as §1

oval-leafed pondweed [3] = assay: Test Example 1: weedkilling efficacy, preemergent weed treatment in the submerged state; C: oval-leafed pondweed; conditions: treatment dosage 252 g/ha
Summary of the method: as §1

transplanted rice = assay: Test Example 1: preemergent weed treatment in the submerged state, effect on crop; a: transplanted rice; conditions: treatment dosage 252 g/ha
Summary of the method: as §1

barnyard grass [4] = assay: Test Example 2: weedkilling efficacy, growth period weed treatment in the submerged state; A: barnyard grass; conditions: treatment dosage 252 g/ha
Summary of the method: (§2)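 Weeds treated at the 1-2 leaf stage by application of diluted emulsion onto floodwater (4 cm depth, alluvial soil) at specified g/ha. Grown in greenhouse at 25 to 30° C; herbicidal effect rated three weeks after treatment.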

bulrush [5] = assay: Test Example 2: weedkilling efficacy, growth period weed treatment in the submerged state; B: bulrush; conditions: treatment dosage 252 g/ha
Summary of the method: as §2

oval-leafed pondweed [6] = assay: Test Example 2: weedkilling efficacy, growth period weed treatment in the submerged state; C: oval-leafed pondweed; conditions: treatment dosage 252 g/ha
Summary of the method: as §2

crabgrass [7] = assay: Test Example 3: weedkilling efficacy through soil treatment; D: crabgrass; conditions: treatment dosage 315 g/ha
Summary of the method: (§3)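 Crop and weed responses were judged three weeks after a uniform surface spray of the water-diluted emulsion at the given g/ha rate. Seeds sat beneath about 1.5 cm of sterilized diluvial soil, and boxes stood in a greenhouse at 25 to 30° C.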

green foxtail [8] = assay: Test Example 3: weedkilling efficacy through soil treatment; E: green foxtail; conditions: treatment dosage 315 g/ha
Summary of the method: as §3

wild oat [9] = assay: Test Example 3: weedkilling efficacy through soil treatment; G: wild oat; conditions: treatment dosage 315 g/ha
Summary of the method: as §3

black-grass [10] = assay: Test Example 3: weedkilling efficacy through soil treatment; H: black-grass; conditions: treatment dosage 315 g/ha
Summary of the method: as §3

Italian ryegrass [11] = assay: Test Example 3: weedkilling efficacy through soil treatment; I: Italian ryegrass; conditions: treatment dosage 315 g/ha
Summary of the method: as §3

Indian mallow [12] = assay: Test Example 3: weedkilling efficacy through soil treatment; K: Indian mallow; conditions: treatment dosage 315 g/ha
Summary of the method: as §3

redroot pigweed [13] = assay: Test Example 3: weedkilling efficacy through soil treatment; L: redroot pigweed; conditions: treatment dosage 315 g/ha
Summary of the method: as §3

fig-leafed goosefoot [14] = assay: Test Example 3: weedkilling efficacy through soil treatment; M: fig-leafed goosefoot; conditions: treatment dosage 315 g/ha
Summary of the method: as §3

chickweed [15] = assay: Test Example 3: weedkilling efficacy through soil treatment; N: chickweed; conditions: treatment dosage 315 g/ha
Summary of the method: as §3

catchweed [16] = assay: Test Example 3: weedkilling efficacy through soil treatment; O: catchweed; conditions: treatment dosage 315 g/ha
Summary of the method: as §3

birds-eye speedwell [17] = assay: Test Example 3: weedkilling efficacy through soil treatment; p: birds-eye speedwell; conditions: treatment dosage 315 g/ha
Summary of the method: as §3

directly sown rice [18] = assay: Test Example 3: soil treatment, effect on crop; b: directly sown rice; conditions: treatment dosage 315 g/ha
Summary of the method: as §3

corn [19] = assay: Test Example 3: soil treatment, effect on crop; c: corn; conditions: treatment dosage 315 g/ha
Summary of the method: as §3

soybean [20] = assay: Test Example 3: soil treatment, effect on crop; d: soybean; conditions: treatment dosage 315 g/ha
Summary of the method: as §3

wheat [21] = assay: Test Example 3: soil treatment, effect on crop; e: wheat; conditions: treatment dosage 315 g/ha
Summary of the method: as §3

beet [22] = assay: Test Example 3: soil treatment, effect on crop; f: beet; conditions: treatment dosage 315 g/ha
Summary of the method: as §3

crabgrass [23] = assay: Test Example 4: weedkilling efficacy by foliar treatment; D: crabgrass; conditions: treatment dosage 315 g/ha
Summary of the method: (§4)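 Seeds are spot-sown into sterilized diluvial soil and covered with about 1.5 cm of soil. After 14 days' greenhouse growth at 25 to 30° C, plants are sprayed on stems and leaves with diluted emulsion at the stated g/ha rate, then scored at 3 weeks.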

green foxtail [24] = assay: Test Example 4: weedkilling efficacy by foliar treatment; E: green foxtail; conditions: treatment dosage 315 g/ha
Summary of the method: as §4

wild oat [25] = assay: Test Example 4: weedkilling efficacy by foliar treatment; G: wild oat; conditions: treatment dosage 315 g/ha
Summary of the method: as §4

black-grass [26] = assay: Test Example 4: weedkilling efficacy by foliar treatment; H: black-grass; conditions: treatment dosage 315 g/ha
Summary of the method: as §4

Italian ryegrass [27] = assay: Test Example 4: weedkilling efficacy by foliar treatment; I: Italian ryegrass; conditions: treatment dosage 315 g/ha
Summary of the method: as §4

Indian mallow [28] = assay: Test Example 4: weedkilling efficacy by foliar treatment; K: Indian mallow; conditions: treatment dosage 315 g/ha
Summary of the method: as §4

redroot pigweed [29] = assay: Test Example 4: weedkilling efficacy by foliar treatment; L: redroot pigweed; conditions: treatment dosage 315 g/ha
Summary of the method: as §4

fig-leafed goosefoot [30] = assay: Test Example 4: weedkilling efficacy by foliar treatment; M: fig-leafed goosefoot; conditions: treatment dosage 315 g/ha
Summary of the method: as §4

chickweed [31] = assay: Test Example 4: weedkilling efficacy by foliar treatment; N: chickweed; conditions: treatment dosage 315 g/ha
Summary of the method: as §4

catchweed [32] = assay: Test Example 4: weedkilling efficacy by foliar treatment; O: catchweed; conditions: treatment dosage 315 g/ha
Summary of the method: as §4

birds-eye speedwell [33] = assay: Test Example 4: weedkilling efficacy by foliar treatment; p: birds-eye speedwell; conditions: treatment dosage 315 g/ha
Summary of the method: as §4

directly sown rice [34] = assay: Test Example 4: foliar treatment, effect on crop; b: directly sown rice; conditions: treatment dosage 315 g/ha
Summary of the method: as §4

corn [35] = assay: Test Example 4: foliar treatment, effect on crop; c: corn; conditions: treatment dosage 315 g/ha
Summary of the method: as §4

soybean [36] = assay: Test Example 4: foliar treatment, effect on crop; d: soybean; conditions: treatment dosage 315 g/ha
Summary of the method: as §4

wheat [37] = assay: Test Example 4: foliar treatment, effect on crop; e: wheat; conditions: treatment dosage 315 g/ha
Summary of the method: as §4

beet [38] = assay: Test Example 4: foliar treatment, effect on crop; f: beet; conditions: treatment dosage 315 g/ha
Summary of the method: as §4

## CC1=C(c2cccnc2F)C(=O)N(C(C)(C)C(=O)Nc2cc(Cl)ccn2)CO1 [B-2-07]
Barnyard grass [1]
  A (barnyard grass) weedkilling efficacy grade: 5 (weed kill ratio 90% or more, (practically complete withering))
Bulrush [2]
  B (bulrush) weedkilling efficacy grade: 5 (weed kill ratio 90% or more, (practically complete withering))
oval-leafed pondweed [3]
  C (oval-leafed pondweed) weedkilling efficacy grade: 5 (weed kill ratio 90% or more, (practically complete withering))
Transplanted rice
  a (transplanted rice) effect on crop grade: 0 (weed kill ratio 5% or less (practically no effect))
Barnyard grass [4]
  A (barnyard grass) weedkilling efficacy grade: 3 (weed kill ratio 40% or more, less than 70%)
Bulrush [5]
  B (bulrush) weedkilling efficacy grade: 5 (weed kill ratio 90% or more, (practically complete withering))
oval-leafed pondweed [6]
  C (oval-leafed pondweed) weedkilling efficacy grade: 2 (weed kill ratio 20% or more, less than 40%)
Crabgrass [7]
  D (crabgrass) weedkilling efficacy grade: 5 (weed kill ratio 90% or more, (practically complete withering))
Green foxtail [8]
  E (green foxtail) weedkilling efficacy grade: 5 (weed kill ratio 90% or more, (practically complete withering))
Wild oat [9]
  G (wild oat) weedkilling efficacy grade: 3 (weed kill ratio 40% or more, less than 70%)
black-grass [10]
  H (black-grass) weedkilling efficacy grade: 5 (weed kill ratio 90% or more, (practically complete withering))
Italian ryegrass [11]
  I (Italian ryegrass) weedkilling efficacy grade: 5 (weed kill ratio 90% or more, (practically complete withering))
Indian mallow [12]
  K (Indian mallow) weedkilling efficacy grade: 2 (weed kill ratio 20% or more, less than 40%)
Redroot pigweed [13]
  L (redroot pigweed) weedkilling efficacy grade: 3 (weed kill ratio 40% or more, less than 70%)
fig-leafed goosefoot [14]
  M (fig-leafed goosefoot) weedkilling efficacy grade: 3 (weed kill ratio 40% or more, less than 70%)
Chickweed [15]
  N (chickweed) weedkilling efficacy grade: 3 (weed kill ratio 40% or more, less than 70%)
Catchweed [16]
  O (catchweed) weedkilling efficacy grade: 3 (weed kill ratio 40% or more, less than 70%)
birds-eye speedwell [17]
  P (birds-eye speedwell) weedkilling efficacy grade: 5 (weed kill ratio 90% or more, (practically complete withering))
Directly sown rice [18]
  b (directly sown rice) effect on crop grade: 4 (weed kill ratio 70% or more, less than 90%)
Corn [19]
  c (corn) effect on crop grade: 3 (weed kill ratio 40% or more, less than 70%)
Soybean [20]
  d (soybean) effect on crop grade: 1 (weed kill ratio 5% or more, less than 20%)
Wheat [21]
  e (wheat) effect on crop grade: 0 (weed kill ratio 5% or less (practically no effect))
Beet [22]
  f (beet) effect on crop grade: 1 (weed kill ratio 5% or more, less than 20%)
Crabgrass [23]
  D (crabgrass) weedkilling efficacy grade: 5 (weed kill ratio 90% or more, (practically complete withering))
Green foxtail [24]
  E (green foxtail) weedkilling efficacy grade: 4 (weed kill ratio 70% or more, less than 90%)
Wild oat [25]
  G (wild oat) weedkilling efficacy grade: 3 (weed kill ratio 40% or more, less than 70%)
black-grass [26]
  H (black-grass) weedkilling efficacy grade: 4 (weed kill ratio 70% or more, less than 90%)
Italian ryegrass [27]
  I (Italian ryegrass) weedkilling efficacy grade: 5 (weed kill ratio 90% or more, (practically complete withering))
Indian mallow [28]
  K (Indian mallow) weedkilling efficacy grade: 1 (weed kill ratio 5% or more, less than 20%)
Redroot pigweed [29]
  L (redroot pigweed) weedkilling efficacy grade: 2 (weed kill ratio 20% or more, less than 40%)
fig-leafed goosefoot [30]
  M (fig-leafed goosefoot) weedkilling efficacy grade: 3 (weed kill ratio 40% or more, less than 70%)
Chickweed [31]
  N (chickweed) weedkilling efficacy grade: 2 (weed kill ratio 20% or more, less than 40%)
Catchweed [32]
  O (catchweed) weedkilling efficacy grade: 2 (weed kill ratio 20% or more, less than 40%)
birds-eye speedwell [33]
  P (birds-eye speedwell) weedkilling efficacy grade: 3 (weed kill ratio 40% or more, less than 70%)
Directly sown rice [34]
  b (directly sown rice) effect on crop grade: 4 (weed kill ratio 70% or more, less than 90%)
Corn [35]
  c (corn) effect on crop grade: 1 (weed kill ratio 5% or more, less than 20%)
Soybean [36]
  d (soybean) effect on crop grade: 3 (weed kill ratio 40% or more, less than 70%)
Wheat [37]
  e (wheat) effect on crop grade: 0 (weed kill ratio 5% or less (practically no effect))
Beet [38]
  f (beet) effect on crop grade: 3 (weed kill ratio 40% or more, less than 70%)
